# Results taken from ChEMBL document CHEMBL1201862, “PubChem BioAssay data set” (2004).
#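 48-hour exposure; five concentrations; linearly interpolated endpoints. GI50 = concentration required for 50% inhibition of growth.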 Activity calls are given as the source filed them. Cut-off read from the data, not from the text of the source: active = GI50 up to about 1.1 µM and inactive = higher.
# Key:
# Assay in all cases: DTP human tumour cell line panel, 48 h
# SNB-75 = test system: SNB-75
# RXF 393 = test system: RXF 393
# SR = test system: SR
# CCRF-CEM = test system: CCRF-CEM
# 786-0 = test system: 786-0
# NCI/ADR-RES = test system: NCI/ADR-RES
# SK-MEL-5 = test system: SK-MEL-5
# OVCAR-3 = test system: OVCAR-3
# OVCAR-8 = test system: OVCAR-8
# HOP-62 = test system: HOP-62
# SNB-19 = test system: SNB-19
# UACC-62 = test system: UACC-62
# RPMI-8226 = test system: RPMI-8226
# SF-268 = test system: SF-268
# NCI-H23 = test system: NCI-H23
# K562 = test system: K562
# SN12C = test system: SN12C
# Malme-3M = test system: Malme-3M
# HL-60 = test system: HL-60
# IGROV-1 = test system: IGROV-1
Compound,GI50 (SNB-75),GI50 (RXF 393),GI50 (SR),GI50 (CCRF-CEM),GI50 (786-0),GI50 (NCI/ADR-RES),GI50 (SK-MEL-5),GI50 (OVCAR-3),GI50 (OVCAR-8),GI50 (HOP-62),GI50 (SNB-19),GI50 (UACC-62),GI50 (RPMI-8226),GI50 (SF-268),GI50 (NCI-H23),GI50 (K562),GI50 (SN12C),GI50 (Malme-3M),GI50 (HL-60),GI50 (IGROV-1)
CCCC(=O)NC1CCc2cc(OC)c(OC)c(OC)c2-c2ccc(OC)c(=O)cc21 (stereo not given),1.82 µM (inactive),0.01 µM (active),0.114 µM (active),0.00028 µM (active),0.000652 µM (active),0.118 µM (active),0.000356 µM (active),0.000384 µM (active),0.00252 µM (active),0.000679 µM (active),0.000519 µM (active),0.000303 µM (active),0.01 µM (active),0.00157 µM (active),0.000715 µM (active),0.00041 µM (active),0.000782 µM (active),0.000764 µM (active),0.000321 µM (active),0.000828 µM (active)
O=C(O)/C=C\C(=O)Nc1ccccn1,> 100 µM (inactive),> 100 µM (inactive),> 100 µM (inactive),> 100 µM (inactive),> 100 µM (inactive),> 100 µM (inactive),> 100 µM (inactive),> 100 µM (inactive),> 100 µM (inactive),> 100 µM (inactive),> 100 µM (inactive),> 100 µM (inactive),> 100 µM (inactive),> 100 µM (inactive),> 100 µM (inactive),> 100 µM (inactive),> 100 µM (inactive),> 100 µM (inactive),> 100 µM (inactive),> 100 µM (inactive)
CN(C)c1ccc(/C=C/C(=O)c2cc(C(C)(C)C)c(O)c(C(C)(C)C)c2)cc1,0.579 µM (active),0.204 µM (active),0.546 µM (active),1.01 µM (active),1.3 µM (inactive),0.796 µM (active),0.774 µM (active),0.443 µM (active),2.93 µM (inactive),2.54 µM (inactive),3.73 µM (inactive),0.637 µM (active),1.55 µM (inactive),2.66 µM (inactive),2.07 µM (inactive),0.979 µM (active),3.13 µM (inactive),> 100 µM (inactive),2.29 µM (inactive),4.15 µM (inactive)
CC(O)C1(CNc2cc(Cl)nc(N)n2)CC(CCc2ccccc2)C1 (stereo not given),15.5 µM (inactive),16.6 µM (inactive),6.15 µM (inactive),17.6 µM (inactive),18.2 µM (inactive),4.1 µM (inactive),5.71 µM (inactive),16.1 µM (inactive),14.5 µM (inactive),14.1 µM (inactive),15.8 µM (inactive),11.9 µM (inactive),11.6 µM (inactive),14.9 µM (inactive),3.06 µM (inactive),6.78 µM (inactive),7.66 µM (inactive),13.3 µM (inactive),14.1 µM (inactive),13.6 µM (inactive)
CC(Br)C(=O)Nc1ccc(C(=O)O)c(O)c1 (stereo not given),43.5 µM (inactive),53.6 µM (inactive),32.9 µM (inactive),15.8 µM (inactive),37.6 µM (inactive),49.5 µM (inactive),62.5 µM (inactive),29.2 µM (inactive),52.8 µM (inactive),34.8 µM (inactive),37.2 µM (inactive),33.6 µM (inactive),> 100 µM (inactive),36.3 µM (inactive),27.4 µM (inactive),49.8 µM (inactive),24.7 µM (inactive),20.7 µM (inactive),26.6 µM (inactive),> 100 µM (inactive)
O=C1/C(=C/c2ccc(O)c(O)c2)CC/C1=C\c1ccc(O)c(O)c1,6.7 µM (inactive),3.25 µM (inactive),2.3 µM (inactive),1.65 µM (inactive),3.83 µM (inactive),8.24 µM (inactive),4.03 µM (inactive),5.09 µM (inactive),10 µM (inactive),7.11 µM (inactive),7.11 µM (inactive),3.79 µM (inactive),2.23 µM (inactive),5.52 µM (inactive),3.09 µM (inactive),3.24 µM (inactive),7.29 µM (inactive),> 29.8 µM (inactive),3.39 µM (inactive),3.74 µM (inactive)
O=C(O)CCc1nc2ccccc2[nH]1 [PROCODAZOLE],> 100 µM (inactive),> 100 µM (inactive),> 100 µM (inactive),> 100 µM (inactive),> 100 µM (inactive),> 100 µM (inactive),> 100 µM (inactive),> 100 µM (inactive),> 100 µM (inactive),> 100 µM (inactive),> 100 µM (inactive),> 100 µM (inactive),> 100 µM (inactive),> 100 µM (inactive),> 100 µM (inactive),> 100 µM (inactive),> 100 µM (inactive),> 100 µM (inactive),> 100 µM (inactive),> 100 µM (inactive)
